Results: US7205409B2, “Pharmaceutical compositions as inhibitors of dipeptidyl peptidase-IV (DPP-IV)” (Abbott Laboratories, priority 2003, dated 2007)

Columns and labels:
[1] = Chemical Stability Assay (HPLC, phosphate buffer pH 7.4, 37° C.); type: physicochemical; conditions: stability to internal cyclization, read-out: chemical stability half-life (T1/2) (converted)
Description: For the determination of chemical stability, compounds of the present invention are assayed using the following protocol:
A solution of each DPP-IV compound was prepared in an appropriate mobile phase. This was injected and analyzed by HPLC to identify the parent drug peak in the chromatograms. Stability solutions were prepared in 50 mM phosphate buffer pH 7.4 adjusted to μ=0.155. Samples were weighed using a Mettler-Toledo microbalance and transferred into a 20 ml glass scintillation vial or a volumetric flask. The phosphate buffer pH 7.4 was added with an EDP Plus 10 ml electronic pipette. The samples were sonicated for approximately 2 minutes and filtered using a PTFE membrane syringe filter. The filtrate was transferred to amber HPLC vials and placed in an autosampler at 37° C. The first sample was immediately injected and counted as the time zero sample. The solution concentration was measured at various timepoints using an appropriate HPLC method. After data acquisition was completed, the chromatograms were processed for each compound. The rate and half-life were determined from a plot of log10 peak area remaining/peak area at zero time vs. exposure time @37° C. using Microsoft® Excel 2000. Rates of reaction and half-lives were calculated using a pseudo-first order kinetic model.

[2] = system: Insulin resistant female ZDF rats; assay: acute oral glucose tolerance test (OGTT); type: in vivo, rat; conditions: OGTT 2 gm/kg four hours later
Description: Compounds of the present invention are evaluated for the ability to treat diabetes using an acute oral glucose tolerance test (OGTT) as follows: Insulin resistant female ZDF rats, 11 weeks of age, on a normal chow diet, are fasted overnight. A baseline tail snip blood sample is taken to measure glucose levels (Precision PCx glucose meter, Abbott Laboratories, Abbott Park, Ill.) at the beginning of the experiment. Immediately after this baseline sample, compounds of the present invention (or placebo) are dosed orally. Four hours later, a tail snip blood glucose measurement is taken, immediately followed by an oral glucose dose (OGTT, 2 gm/kg). The glucose excursion is followed for 2 hr with samples taken at 10, 20, 30, 60 and 120 min post OGTT. These timed glucose data are used to construct a glucose excursion curve, from which an area under the glucose curve (AUGC) is determined. Data are reported as the baseline-adjusted area under the glucose curve (deltaAUGC) for drug and control groups.

half-life [1] [h] | SMILES | δ AUGC ([2]; 1.0 mg/kg oral) | δ AUGC, change versus control ([2]; 1.0 mg/kg oral) [%] | δ AUGC ([2]; 3.0 mg/kg oral) | δ AUGC, change versus control ([2]; 3.0 mg/kg oral) [%]
12.2 | N#C[C@@H]1CCCN1C(=O)[C@@H]1CC[C@H](c2ccccc2)N1 [Comparative compound γ] | – | – | – | –
– | N#C[C@@H]1CCCN1C(=O)[C@@H]1CC[C@H](COc2ccc(C(=O)O)c3ccccc23)N1 [Example 54, (2S)-1-{(5R)-5-((4-carboxynaphthalen-1-yloxy)methyl)-L-prolyl}-pyrrolidine-2-carbonitrile] | 7,600 mg/mL/dL | −24 | 7,300 mg/mL/dL | −27
5.3 | C[C@H]1CC[C@@H](C(=O)N2CCC[C@H]2C#N)N1 [Comparative compound α] | – | – | – | –
